Experimental data: US20210221777A1, “NOVEL COMPOUNDS RELATED TO MY[…] METHODS OF TREATING CANCER” (priority 2020, published 2021)
Where two headings read alike, the source gives them in different places.

What was measured:
[1] = test system: colon (HCT-116) tumor cell line; experiment: Cytotoxicity vs. HCT 116 tumor cell line; type: cell-based; conditions: this work, ± SEM, N = 2
[2] = test system: hypoxia-induced factor (HIF-1) signaling in T47D breast tumor cells; conditions: cited from earlier work; for IC50: hypoxia-induced, read-out: IC50 against HIF-1 signaling
[3] = test system: pancreatic (PANC-1), liver (HepG2), and colon (HCT-116) tumor cell lines; experiment: Cytotoxicity of fresh 1, summary over PANC-1, HepG2 and HCT-116; type: cell-based
[4] = Sample storage degradation experiments a-e followed by LCMS; type: physicochemical; conditions: 24 hrs
Text: Recent work in our laboratory using HPLC during the scale up isolation of mycothiazole (1) hinted that mycothiazole-4,19-diol (7)^6 may also be an artifact of isolation encountered during routine purification of degraded 1. To test this hypothesis, we subjected freshly purified 1 to a variety of sample storage experimental conditions (a-e) summarized in Table 2. Analytical (LCMS) data was used to determine purity outcomes of 1 in terms of its observed degradation which is summarized at the bottom of Table 2 and in FIG. 2. […] Furthermore, the diagnostic MS m/z ion peak (439, [M+H]^+)^6 characteristic of 7 was also observed in samples b-c and e, but not in a or d, as shown in FIG. 2. Selected examples included molecular ion peaks of 421 m/z and 437 m/z. We were unable to pursue full or even partial structure elucidation of these components or the observed 439 m/z ion peak, using NMR studies, due to insufficient material.

[5] = Shelf life / preservation studies (1H NMR)
Text: Our final approach reinvestigating 1 involved exploring the relevance of the C(8)-OH stereocenter and labile C-14/C-19 diene system for their SAR significance related to the cytotoxicity of 1 against tumor cell lines.

[6] = test system: colon (HCT-116) tumor cell line; conditions: literature value, may be inaccurate due to compound degradation, read-out: HCT 116 IC50 (Sashidhara et al., 2009); cited from earlier work
[7] = test system: human colon tumor (HCT-15) cell lines; conditions: Manta et al., read-out: GI50 against HCT-15; cited from earlier work
solid tumor cell lines = conditions: read-out: cytotoxicity IC50 against a wide variety of solid tumor cell lines; range over literature cell lines; cited from earlier work
[8] = test system: pancreatic (PANC-1) tumor cell lines; experiment: Cytotoxicity vs. PANC-1 tumor cell line
[9] = a) standard protocol: amber vial, Argon, dark desiccator under vacuum
[10] = b) MeOH-O2 (air stream), amber vial, room temp. 22° C.
[11] = c) MeOH-N2 (N2 stream), amber vial, room temp. 22° C.
[12] = d) refrigeration 4° C., amber vial, Argon
[13] = e) direct light (hv), clear vial, 24° C.
[14] = read-out: PANC-1 IC50, PANC-1, this work, ± SEM, N = 2

C=CC/C=C\Cc1csc(C(C)(C)[C@H](O)C/C=C/C(O)(CO)CCNC(=O)OC)n1 (stereo partly drawn) [mycothiazole-4,19-diol (7), mycothiazole-4,19-diol, reference compound]
IC50 [1]: > 1000 nM
times less potent than 1 or 2 at suppression of hypoxia-induced HIF-1 activation [2]: at least 1000 times

C=CC/C=C\Cc1csc(C(C)(C)[C@H](O)C/C=C\C(=C)CCNC(=O)OC)n1 [mycothiazole (1), mycothiazole]
increase in potency of fresh 1 versus earlier data ([3]; PANC-1, HepG2, HCT-116): tenfold increase
IC50 ([3]; range over PANC-1, HepG2, HCT-116, read-out: IC50 of fresh 1 across three tumor cell lines): 0.16 to 0.36 nM
analytical LCMS data UV-PDA maximum absorbance units of 1 [4, 9]: 500000 AU
purity outcomes of 1 involving its degradation [4, 9]: minimal degradation
MS-TIC of visible impurity peaks [4, 10]: ~45% relative % relative abundance of m/z io
analytical LCMS data UV-PDA maximum absorbance units of 1 [4, 10]: 500000 AU
purity outcomes of 1 involving its degradation [4, 10]: partial degradation
MS-TIC of visible impurity peaks [4, 11]: ~45% relative % relative abundance of m/z io
analytical LCMS data UV-PDA maximum absorbance units of 1 [4, 11]: 500000 AU
purity outcomes of 1 involving its degradation [4, 11]: partial degradation
MS-TIC of visible impurity peaks [4, 12]: ~20% relative % relative abundance of m/z io
analytical LCMS data UV-PDA maximum absorbance units of 1 [4, 12]: 500000 AU
purity outcomes of 1 involving its degradation [4, 12]: minimal degradation
MS-TIC of visible impurity peaks [4, 13]: ~60% relative % relative abundance of m/z io
analytical LCMS data UV-PDA maximum absorbance units of 1 [4, 13]: 280000 AU
purity outcomes of 1 involving its degradation [4, 13]: severe degradation
shelf life ([5]; pure 1, storage protocols a or d of Table 2): 3-6 weeks
stability on storage ([5]; stored at 4° C.): unstable
IC50 [6]: 3.8 ± 0.24 nM
GI50 [7]: 44 µM
IC50 [2]: ~1 nM
IC50 (solid tumor cell lines): 0.36 to 13.8 nM
IC50 ([8]; Homo sapiens, PANC-1, read-out: PANC-1 IC50): 0.16 nM

8-O-acetyl-mycothiazole [8-O-acetyl-mycothiazole (2)]
time stable in preservation studies using 1H NMR ([5]; stored by standard storage protocol (Table 2a), more stable than 1): ≥ 6 months
IC50 [2]: ~1 nM
IC50 [8, 14]: 1.3 nM

C=CC/C=C\Cc1csc(C(C)(C)C(=O)C/C=C\C(=C)CCNC(=O)OC)n1 [8-Oxo-mycothiazole (8), 8-oxo-mycothiazole]
fold less potent than 1 (cytotoxicity) ([8]; PANC-1, relative to 1): 10,000 times
IC50 [8, 14]: 2000 nM
